Values of other authors in US6514710B1, “Method of using cyclic peptides to inhibit binding to urokinase-type plasminogen activator receptor” (Angstrom Pharmaceuticals, Inc., priority 1996, dated 2003).
pIC50: −log10 of the molar value. Like-named read-outs stand apart in the source and are kept apart here.

Columns and labels:
uPAR [1] = target: T1, uPAR (Homo sapiens, UniProt Q03405); conditions: read-out: IC50, inhibition of the binding of uPA to uPAR
[2] = test system: murine Lewis Lung carcinoma; conditions: murine Lewis Lung carcinoma in mice; peptides derived from the mouse sequence
uPAR [3] = target: T1, uPAR; conditions: read-out: IC50, prevention of uPA binding to uPAR

T1 sequence (Q03405 23-305): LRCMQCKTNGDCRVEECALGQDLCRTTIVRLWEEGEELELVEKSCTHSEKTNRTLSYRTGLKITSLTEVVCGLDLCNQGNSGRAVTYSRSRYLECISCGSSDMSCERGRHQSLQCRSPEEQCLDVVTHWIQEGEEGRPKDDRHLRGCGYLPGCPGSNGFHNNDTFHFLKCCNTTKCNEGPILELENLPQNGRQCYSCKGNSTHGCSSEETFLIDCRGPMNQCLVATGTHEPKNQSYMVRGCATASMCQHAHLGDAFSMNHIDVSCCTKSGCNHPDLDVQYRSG

Substance	pIC50 (uPAR [1])	inhibition of spontaneous metastasis [2]	pIC50 (uPAR [3])
peptide 17-34: longer peptide of uPA residues 17-34 (GTCVSNKYFSNIHWCNCP; UniProt P00749 37-54, looked up, fragment)	7.00	–	–
corresponding linear shorter peptide (20-30): linear shorter peptide (20-30) corresponding to the mouse sequence (CVSYKYFSRIR; UniProt P06869 40-50, looked up, fragment)	–	had no effect	–
peptide (17-34) derived from the mouse sequence: corresponding longer peptide (17-34) derived from the mouse uPA sequence (GGVCVSYKYFSRIRRCSC; UniProt P06869 37-54, looked up, fragment)	–	inhibited spontaneous metastasis	–
[Ala^19]uPA-(12-32) [[Ala^19]uPA-(12-32) oxidized cyclic form]	–	–	7.40
linear peptide 20-30: linear peptide of uPA residues 20-30 (VSNKYFSNIHW; UniProt P00749 40-50, looked up, fragment)	6.00	–	–
[Ala^19]uPA-(12-32) [[Ala^19]uPA-(12-32) open chain form]	–	–	7.00
